The record followed here is ChEMBL document CHEMBL1151857, “A new psoralen derivative with enlarged antiproliferative properties” (Bioorg Med Chem Lett, 2009).

Activity calls are given as the source filed them. No cut-off for these calls is given here.

Data set [1] relates to HeLa. The experiment in a line: Photo-antiproliferative activity against human HeLa cells under dark condition. In kind it is functional, cell-based.
Data set [2] deals with HeLa. The experiment in a line: Photo-antiproliferative activity against human HeLa cells exposed to 365 nm, 0.793 Jcm'-2 UVA light. In kind it is functional, cell-based. Conditions: light or radiation study.
The subject of data set [3] is Nucleic Acid. The experiment in a line: Binding affinity to DNA assessed as intercalation between base pairs by linear flow dichroism spectroscopy. In kind it is nucleic-acid assay.
The test system of data set [4] is Zone of skin. Kind of data set: Phototoxicity in depilated guinea pig skin assessed as formation of erythema. In kind it is tissue-based, Cavia porcellus.

For orientation: IC50 means the concentration that inhibits the measured activity by half. A higher IC50 goes with a need for much substance. For `CN(C)CCCOc1c2oc(=O)ccc2cc2c1oc1nnccc12`, the results for the concentration for half-maximal inhibition (IC50) in data set [1] and in data set [2] were 13.5 µM and 2.9 µM, respectively. In addition, the result in data set [3] was Active.

The compound `COc1c2occc2cc2ccc(=O)oc12` [METHOXSALEN] returned a half-maximal inhibitory concentration (IC50) in data set [1] greater than 20 µM. The Activity result in data set [4] is “Toxic”.
